Results reported in patent US20070218504A1, “HUMAN LEPTIN-DERIVED POLYPEPTIDES AND USES THEREOF” (UNIVERSITY OF PITTSBURGH, priority 2006, published 2007).
Each block holds one substance with its values, some of them ahead of it.

Experiments:
[1] = target: T1, long-form human leptin receptor, OB-Rb (Homo sapiens, UniProt P48357); experiment: 125I-labeled human leptin binding to OB-Rb on stably transfected HEK293 cells, with or without pre-incubation with human CRP
T1 construct: expressed in transfected cells
T1 sequence (P48357 22-1165): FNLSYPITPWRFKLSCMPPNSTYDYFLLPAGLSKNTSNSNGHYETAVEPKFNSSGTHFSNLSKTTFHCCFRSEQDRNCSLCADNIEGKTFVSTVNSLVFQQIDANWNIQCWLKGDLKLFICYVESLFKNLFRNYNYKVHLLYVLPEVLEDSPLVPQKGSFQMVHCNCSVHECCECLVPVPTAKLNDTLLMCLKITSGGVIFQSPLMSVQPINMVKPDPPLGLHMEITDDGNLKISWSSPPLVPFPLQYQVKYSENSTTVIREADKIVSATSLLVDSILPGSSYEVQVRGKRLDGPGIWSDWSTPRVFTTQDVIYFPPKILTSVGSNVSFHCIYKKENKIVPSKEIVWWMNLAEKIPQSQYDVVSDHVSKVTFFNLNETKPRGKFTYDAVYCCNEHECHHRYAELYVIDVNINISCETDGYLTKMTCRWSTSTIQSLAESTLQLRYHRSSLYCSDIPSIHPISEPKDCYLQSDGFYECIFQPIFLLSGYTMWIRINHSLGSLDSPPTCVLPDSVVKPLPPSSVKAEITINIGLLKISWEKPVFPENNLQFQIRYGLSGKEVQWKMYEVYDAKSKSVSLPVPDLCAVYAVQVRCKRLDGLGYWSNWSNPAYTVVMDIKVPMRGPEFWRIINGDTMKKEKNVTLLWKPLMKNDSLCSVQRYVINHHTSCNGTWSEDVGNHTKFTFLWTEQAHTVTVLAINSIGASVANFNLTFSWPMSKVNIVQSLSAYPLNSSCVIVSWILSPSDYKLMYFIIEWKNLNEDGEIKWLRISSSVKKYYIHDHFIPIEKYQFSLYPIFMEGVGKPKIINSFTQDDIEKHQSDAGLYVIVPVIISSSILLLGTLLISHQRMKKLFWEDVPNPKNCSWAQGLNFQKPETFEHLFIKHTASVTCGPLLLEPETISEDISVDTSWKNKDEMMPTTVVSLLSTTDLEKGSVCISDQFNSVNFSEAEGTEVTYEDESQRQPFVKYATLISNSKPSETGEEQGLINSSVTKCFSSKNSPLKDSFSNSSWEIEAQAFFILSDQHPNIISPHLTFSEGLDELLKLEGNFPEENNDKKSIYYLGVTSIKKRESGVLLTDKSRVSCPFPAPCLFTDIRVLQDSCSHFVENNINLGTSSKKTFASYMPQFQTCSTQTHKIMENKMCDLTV
Procedure: FIG. 4A. Interference effect of human CRP on human leptin binding to its receptor. HEK293 cells stably transfected with the long-form human leptin receptor, OB-Rb (14), are used to examine whether human CRP interferes with the ability of human leptin to bind to its receptor. […] The dashed line at the bottom right of the graph indicates ^125I-leptin bound when two thousand fold excess of non-labeled leptin is added.
To examine if CRP binding interferes with the stability of human leptin to bind to its receptors, a HEK293 cell line stably transfected with the long-form human leptin receptor, OB—Rb, was used (17). Human leptin was iodinated with Na^125I using the lodogen method. Briefly, 15 μg of recombinant human leptin in 100 mM Phosphate buffer pH 7.5 were incubated with 1 mCi of carrier-free Na^125I (2200 Ci/mmol) in a glass tube containing 50 μg Iodogen. After 10-minute incubation at room temperature, the reaction was stopped with 100 μl 0.1% trifluoroacetic acid (TFA). The reaction mixture was immediately purified by reverse-phase HPLC. The separation employed a 5-minute isocratic step at 20% eluant B in A, followed by two consecutive 30 min linear gradients from 20 to 50%, then from 50 to 60% eluant B in A (where eluant A is water containing 0.1% TFA and eluant B is acetonitrile containing 0.1% TFA) at a flow rate of 1.5 ml/min. […]

ob/ob mice = experiment: Intracerebralventricular (i.c.v.) injection of human CRP and leptin in ob/ob mice, food intake and body weight; assay type: in vivo, mouse
Procedure: Male C57BL/6J ob/ob mice used in this study were obtained from the Jackson Laboratory, Bar Harbor. Mice (7-8 weeks of age) were fed standard chow and water ad libitum, housed in individual cages under controlled temperature at 22° C. and a 12-hour light-dark cycle with light from 0700 to 1900 h. Food intake and body weight were measured daily throughout the study. All experimental procedures were performed according to protocols approved by the Institutional Animal Care and Use Committee at the University of Pittsburgh. Cannulas were surgically implanted into the lateral ventricles of male ob/ob mice. Specifically, the mice were intraperitoneally anesthetized with 250 mg/Kg Avertin (Sigma-Aldrich). A plastic cannula was inserted into lateral cerebral ventricle: −0.7 mm relative to bregma, 1.3 mm lateral of midline, and 2 mm down to the calvarium. The exteriorized cannula was secured on the skull with original Super Glue. To prevent the cannula from becoming blocked by blood clots, a 28-gauge stainless syringe pinhead was inserted into each cannula. The animals were allowed to recover for 1 week after surgery until the food-intake reaches at least 90% of the pre-operative level. All agents were injected slowly with a volume of 1 μl using a 5 μl syringe (Hamilton, Reno, Nev.). For instance, human CRP was injected at a lower concentration of 1.2 μg per animal and a higher concentration of 2.3 μg per animal into the lateral ventricles. The i.c.v injection of human CRP was followed 24 hours later by injection of human leptin at a sub-maximal dose of 100 ng/animal. In a parallel experiment, human leptin was also injected via i.c.v. following a pre-injection of PBS. In each injection scheme, food was returned to the animals 1 hour after the injection, and the amount of food-intake and body weight were measured 24 hours later. All paired comparisons were subject to a two-tailed Student t-test with P<0.05 considered statistically significant. Additionally, human leptin was injected via i.c.v. for an extended period of two days subsequent to a pre-injection of human CRP with a dosage of 2.3 μg/injection. In a parallel experimental scheme, daily injection of human leptin was performed for two consecutive days subsequent to a pre-injection of PBS.

[2] = human leptin 100 ng/animal i.c.v. after PBS pre-injection, 24 hours

- IC50 of human CRP for reducing 125I-labeled human leptin binding to its receptor ([1]; in the presence of about 2 ng/ml human leptin, 1 hour pre-incubation): approximately 80 ng/ml
Substance: human CRP: human C-reactive protein, purified preparation from a commercial source
- effect of CRP pre-injection on satiety and weight reducing effects of human leptin, 1.2 μg (ob/ob mice; human CRP 1.2 μg i.c.v. 24 hours before leptin): partially blunted
- effect of CRP pre-injection on first injection of human leptin (ob/ob mice; human CRP 2.3 μg/injection): completely blunted
- effect of CRP pre-injection on second injection of human leptin (ob/ob mice; human CRP 2.3 μg/injection): at least partially blocked
- effect of CRP pre-injection on satiety and weight reducing effects of human leptin, 2.3 μg (ob/ob mice; human CRP 2.3 μg/μl i.c.v. 24 hours before leptin): completely blocked
- food consumed after CRP alone compared to PBS alone (ob/ob mice; i.c.v., ob/ob mice): essentially the same amount of food

Substance: human leptin: human recombinant leptin
- Kd ([1]; HEK293 cells stably transfected with OB-Rb): 1 nM
- effect of daily injection of human leptin for two days on food intake and body weight (ob/ob mice; after PBS pre-injection): gradual decreases in food intake and body weight
- decrease in food-intake (ob/ob mice; [2]): 40.2%
- reduction of body weight (ob/ob mice; [2]): 2.17%
